Converted amounts (≈) assume the structure as drawn.
Tests used:
[1] = test system: breast cancer cells (MCF-7 line); assay: MTT cytotoxicity assay, MCF7; assay type: cell-based, human; settings: for IC50: Homo sapiens; for IC50 / IC50 MCF7: MCF7 cells, 48 h treatment, MTT; for SI MCF7 (selectivity index): ratio of IC50 for normal cell line (HaCaT) to IC50 for MCF7, 48 h
Description: (§1) The MTT assay was performed to specify the cytotoxicity of 7–12 and 13–18 against prostate cancer cells (PC3 line), breast cancer cells (MCF7 line), and human keratinocytes (HaCaT line). The mentioned cell lines were assayed by exposing them for 48 h to a medium containing the studied compounds over a wide range of concentrations. The IC50 values (dose of the compound which caused a 50% reduction of cell viability) and the selectivity indexes (SI), which show the ratio of IC50 for normal cell line to IC50 for cancer cell line, are shown in Table S2. An MTT assay was performed to specify the cytotoxicity of the studied compounds against breast cancer cells (MCF-7 line, ATCC), prostate cancer cells (PC3 line, ATCC) and human keratinocytes (HaCaT line, CLS). The MCF-7 cell line was cultured in an RPMI 1640 medium (Gibco, Thermo Fisher Scientific), the PC3 cell line in a F-12K medium (Gibco, Thermo Fisher Scientific), and the HaCaT cell line in a high-glucose DMEM (Gibco, Thermo Fisher Scientific). Each medium was supplemented with 10% fetal bovine serum (Gibco, Thermo Fisher Scientific) and antibiotics (penicillin and streptomycin, Gibco, Thermo Fisher Scientific). Cells were seeded at a density of 4000 per well into 96-well plates and incubated at 37 °C in a 5% CO2 atmosphere. The cells were treated with studied compounds in a concentration range of 0.1–100 μg/mL or with a vehicle (1% DMSO) as a control and subsequently incubated for 48 h. Thereafter, the MTT salt solution (3-(4,5-dimethylthiazol-2-yl)-2,5-diphenyltetrazolium bromide, VWR) was added at a concentration of 4 mg/mL (25 μL per well), and the obtained product (formazan) after 3 h of incubation was dissolved in DMSO. An EnSpire microplate reader (PerkinElmer) was used to measure absorbance at 570 nm (the reference wavelength was 660 nm). The viability of the control cells was taken as 100%. Three independent experiments were conducted in triplicate. Statistical analysis of the results and estimation of IC50 values were performed using GraphPad Prism 7 software.

[2] = test system: human keratinocytes (HaCaT line); assay: MTT cytotoxicity assay, HaCaT; assay type: cell-based; settings: HaCaT normal cells, 48 h treatment; for IC50: Homo sapiens
Description: as §1

S. aureus ATCC 33591 = assay: MIC, broth dilution method; assay type: cell-based; settings: Staphylococcus aureus, ATCC33591; MHB II, 18 h, 37 °C; read-out: Minimum inhibitory concentration S. aureus ATCC 33591
Description: (§2) MIC was determined with the dilution method in Mueller–Hinton II broth (MHB II) on 96-well polystyrene plates. The reference strains (Polish Academy of Sciences, Wroclaw, Poland) of Gram-positive bacteria (Enterococcus faecium ATCC 29,212, S. aureus ATCC 6538, S. aureus ATCC 43,300, S. aureus ATCC 12,598, S. aureus ATCC 25,923, S. aureus, ATCC 33,591, Staphylococcus epidermidis ATCC 14,990) and Gram-negative bacteria (Acinetobacter baumanii ATCC 23,506, Escherichia coli ATCC 25,922, Klebsiella pneumoniae ATCC 700,603, Pseudomonas aeruginosa ATCC 9027) were suspended in MHB II medium to initial inoculum of 10^5 cfu/mL. The microbes were exposed to graded concentrations of tested compounds (range 0.5–256 mg/L) for 18 h at 37 °C under aerobic conditions. The compounds were dissolved in DMSO and then diluted with PBS. […] MIC was taken as the lowest concentration at which no microbial growth was observed. The experiments were performed in triplicate.

S. aureus ATCC 6538 = assay: MIC, broth dilution method; assay type: cell-based; settings: Staphylococcus aureus, ATCC6538; MHB II, 18 h, 37 °C; read-out: Minimum inhibitory concentration S. aureus ATCC 6538
Description: as §2

E. faecium ATCC 29212 = assay: MIC, broth dilution method; assay type: cell-based; settings: Enterococcus faecium, ATCC29212; MHB II, 18 h, 37 °C; read-out: Minimum inhibitory concentration E. faecium ATCC 29212
Description: as §2

S. aureus ATCC 12598 = assay: MIC, broth dilution method; assay type: cell-based; settings: Staphylococcus aureus, ATCC12598; MHB II, 18 h, 37 °C; read-out: Minimum inhibitory concentration S. aureus ATCC 12598
Description: as §2

[3] = test system: S. epidermidis ATCC 14990; assay: MIC, broth dilution method; assay type: cell-based; settings: Staphylococcus epidermidis, ATCC14990; MHB II, 18 h, 37 °C; read-out: Minimum inhibitory concentration S. epidermidis ATCC 14990
Description: as §2

S. aureus ATCC 25923 = assay: MIC, broth dilution method; assay type: cell-based; settings: Staphylococcus aureus, ATCC25923; MHB II, 18 h, 37 °C; read-out: Minimum inhibitory concentration S. aureus ATCC 25923
Description: as §2

S. aureus ATCC 43300 = assay: MIC, broth dilution method; assay type: cell-based; settings: Staphylococcus aureus, ATCC43300; MHB II, 18 h, 37 °C; read-out: Minimum inhibitory concentration S. aureus ATCC 43300
Description: as §2

[4] = test system: prostate cancer cells (PC3 line); assay: MTT cytotoxicity assay, PC3; assay type: cell-based, human; settings: for IC50: Homo sapiens, PC-3; for IC50 / IC50 PC3: PC3 cells, 48 h treatment, MTT; for SI PC3 (selectivity index): ratio of IC50 for normal cell line (HaCaT) to IC50 for PC3, 48 h
Description: as §1

Row | SMILES | IC50 [1] [µM] | SI MCF7 (selectivity index) [1] | IC50 [2] [µM] | MIC (S. aureus ATCC 33591) [mg/L] | MIC (S. aureus ATCC 6538) [mg/L] | MIC (E. faecium ATCC 29212) [mg/L] | MIC (S. aureus ATCC 12598) [mg/L] | MIC [3] [mg/L] | MIC (S. aureus ATCC 25923) [mg/L] | MIC (S. aureus ATCC 43300) [mg/L] | IC50 [4] [µM] | SI PC3 (selectivity index) [4] | further results
1 | C[C@@H]1CC[C@@]2(OC1)O[C@H]1C[C@H]3[C@@H]4CC=C5C[C@@H](O[C@H]6CC[C@H](O)[C@H](C)O6)CC[C@]5(C)[C@H]4CC[C@]3(C)[C@H]1[C@@H]2C [16α, Diosgenyl 2,3,6-Trideoxy-α-L-threo-hexopyranoside] | 36.6 | 0.84 | 30.6 | > 256 | > 256 | > 256 | > 256 | > 256 | > 256 | > 256 | 29.9 | 1.02 | –
2 | C[C@@H]1CC[C@@]2(OC1)O[C@H]1C[C@H]3[C@@H]4CC=C5C[C@@H](O[C@@H]6C=C[C@H](O)CO6)CC[C@]5(C)[C@H]4CC[C@]3(C)[C@H]1[C@@H]2C [11α] | 40.6 | 0.60 | 24.5 | > 256 | 256 (≈ 499 µM) | > 256 | > 256 | 256 (≈ 499 µM) | > 256 | > 256 | 24.4 | 1.00 | –
3 | C[C@@H]1CC[C@@]2(OC1)O[C@H]1C[C@H]3[C@@H]4CC=C5C[C@@H](O[C@H]6C=C[C@H](O)[C@H](C)O6)CC[C@]5(C)[C@H]4CC[C@]3(C)[C@H]1[C@@H]2C [10α, Diosgenyl 2,3,6-Trideoxy-α-L-threo-hex-2-enopyranoside] | 57.6 | 0.88 | 50.9 | > 256 | > 256 | > 256 | > 256 | > 256 | > 256 | > 256 | 49.7 | 1.02 | –
4 | C[C@@H]1CC[C@@]2(OC1)O[C@H]1C[C@H]3[C@@H]4CC=C5C[C@@H](O[C@@H]6CC[C@H](O)[C@@H](CO)O6)CC[C@]5(C)[C@H]4CC[C@]3(C)[C@H]1[C@@H]2C [13α, Diosgenyl 2,3-Dideoxy-α-D-erythro-hexopyranoside] | 38.6 | 0.56 | 21.6 | > 256 | > 256 | > 256 | > 256 | > 256 | > 256 | > 256 | 22.5 | 0.96 | –
5 | C[C@@H]1CC[C@@]2(OC1)O[C@H]1C[C@H]3[C@@H]4CC=C5C[C@@H](O[C@@H]6C=C[C@@H](O)CO6)CC[C@]5(C)[C@H]4CC[C@]3(C)[C@H]1[C@@H]2C [12β] | 35.6 | ca. 2 | 57.9 | > 256 | 256 (≈ 499 µM) | > 256 | > 256 | > 256 | > 256 | > 256 | 27.9 | – | SI MCF7 (selectivity index) ([1]; listed as 12): 1.62
6 | C[C@@H]1CC[C@@]2(OC1)O[C@H]1C[C@H]3[C@@H]4CC=C5C[C@@H](O[C@@H]6C=C[C@@H](O)[C@@H](CO)O6)CC[C@]5(C)[C@H]4CC[C@]3(C)[C@H]1[C@@H]2C [8α, Diosgenyl 2,3-Dideoxy-α-D-threo-hex-2-enopyranoside] | 44.9 | 0.49 | 22.2 | > 256 | > 256 | > 256 | > 256 | > 256 | > 256 | > 256 | 21.4 | 1.04 | –
7 | C[C@@H]1CC[C@@]2(OC1)O[C@H]1C[C@H]3[C@@H]4CC=C5C[C@@H](O[C@H]6C=C[C@H](O)CO6)CC[C@]5(C)[C@H]4CC[C@]3(C)[C@H]1[C@@H]2C [11β] | – | – | – | > 256 | > 256 | > 256 | > 256 | > 256 | > 256 | > 256 | – | – | IC50 MCF7 [1]: completely inactive; IC50 MCF7 ([1]; listed as 11): inactive; IC50 HaCaT [2]: completely inactive; IC50 HaCaT ([2]; listed as 11): inactive; IC50 PC3 [4]: completely inactive; IC50 PC3 ([4]; listed as 11): inactive
8 | C[C@@H]1CC[C@@]2(OC1)O[C@H]1C[C@H]3[C@@H]4CC=C5C[C@@H](O[C@H]6C=C[C@@H](O)[C@H](C)O6)CC[C@]5(C)[C@H]4CC[C@]3(C)[C@H]1[C@@H]2C [9α, Diosgenyl 2,3,6-Trideoxy-α-L-erythro-hex-2-enopyranoside] | 183 | 0.24 | 43.4 | > 256 | > 256 | > 256 | > 256 | > 256 | > 256 | > 256 | 25.4 | 1.71 | –
9 | C[C@@H]1CC[C@@]2(OC1)O[C@H]1C[C@H]3[C@@H]4CC=C5C[C@@H](O[C@@H]6C=C[C@H](O)[C@@H](CO)O6)CC[C@]5(C)[C@H]4CC[C@]3(C)[C@H]1[C@@H]2C [7α, Diosgenyl 2,3-Dideoxy-α-D-erythro-Hex-2-enopyranoside] | 56.1 | 0.36 | 20.2 | > 256 | 256 (≈ 472 µM) | 256 (≈ 472 µM) | > 256 | 256 (≈ 472 µM) | > 256 | > 256 | 16.8 | 1.20 | –
10 | C[C@@H]1CC[C@@]2(OC1)O[C@H]1C[C@H]3[C@@H]4CC=C5C[C@@H](O[C@@H]6CC[C@@H](O)CO6)CC[C@]5(C)[C@H]4CC[C@]3(C)[C@H]1[C@@H]2C [18β] | 26.9 | ca. 2 | 59.9 | > 256 | > 256 | > 256 | > 256 | > 256 | > 256 | > 256 | 28.9 | ca. 2 | SI MCF7 (selectivity index) ([1]; listed as 18): 2.23; SI PC3 (selectivity index) ([4]; listed as 18): 2.07

Reference: PMC11494662, “Insight into the Course of the Ferrier Rearrangement Used to Obtain Untypical Diosgenyl Saponins” (The Journal of Organic Chemistry, 2024)
